Measurements from patent US11191773B2, “Methods of treatment for bacterial infections” (President and Fellows of Harvard College, priority 2017, dated 2021).
Converted amounts (≈) assume the structure as drawn. Where two headings read alike, the source gives them in different places.

What was measured:
[1] = tested on: polymyxin-resistant E. coli (clinical isolate from Brigham and Women's Hospital); assay type: cell-based; conditions: 37° C. for 24 h
Method: The effect of novobiocin/polymyxin combination was further assessed in polymyxin-resistant strains using checkerboard microdilution assays. In these assays, polymyxin-resistant strains (E. coli (clinical isolate from Brigham and Women's Hospital); A. baumannii (ATCC: 19606) mutant that is novobiocin and polymyxin-resistant; and K. pneumoniae (clinical isolate from Brigham and Women's Hospital)) were grown at 37° C. for 24 h.

[2] = tested on: E. coli strain ATCC 25922; experiment: Neutropenic mouse thigh infection efficacy; assay type: in vivo
Method: Female CD-1 mice from Charles River Laboratories were allowed to acclimate for 5 days prior to start of study. Animals were housed four per cage with free access to food and water. Mice received two doses of cyclophosphamide on days −4 and −1 with 150 mg/kg and 100 mg/kg delivered IP, respectively. All procedures were performed to NeoSome IACUC policies and guidelines as well as OLAW standards.
E. coli strain ATCC 25922 was prepared for infection from an overnight plate culture. A portion of the plate was resuspended in sterile saline and adjusted to an OD of 0.15 at 625 nm. The adjusted bacterial suspension was further diluted to target an infecting inoculum of 1.5×10^5 CFU/mouse, the actual inoculum size for E. coli was 1.45×10^5 CFU/mouse. Plate counts of the inoculum was performed to confirm inoculum concentration.
Mice were inoculated with 100 μL of the prepared bacterial suspension via intramuscular injection into the right rear thigh.
Beginning at two hours post infection, mice were dosed with test agents subcutaneously at 10 mL/kg. A second dose of test agents was delivered at 6 hours post infection. For co-administered therapy, test agents were delivered separately at two different injection sites. Four animals were dosed per group. One group of four mice were euthanized at initiation of therapy (T=2 h) and CFUs determined. All remaining mice were euthanized at 26 hours post infection. At termination, thighs were aseptically excised, weighed, and homogenized to a uniform consistency in 2 mL of sterile saline. The homogenate was serially diluted and plated on bacterial growth media. The CFUs were enumerated after overnight incubation. The average and standard deviations for each group were determined.
Neutropenic mice infected with E. coli were treated with novobiocin, polymyxin B, or a combination of the two for the evaluation of efficacy is a thigh infection model.

ΔtolC = experiment: Minimum inhibitory concentration assay; assay type: cell-based, E. coli; conditions: Escherichia coli, 15 h, read-out: Minimum inhibitory concentration
Method: (§1) We wondered whether it would be possible to separate novobiocin's ability to suppress the IptFG(ch) defects in vivo from its activity against DNA gyrase, its presumed primary target. […] Minimum inhibitory concentrations were measured after a 15-hr incubation period at 37° C.
(§2) Overnight cultures were prepared by transferring 5 mL of sterile LB Miller media to culture tubes and inoculating with the corresponding organism. The tubes were allowed to shake at 220 rpm, 37° C. overnight. 15 μL of overnight culture was diluted in 15 mL of LB Miller in a Falcon tube and was vortexed to mix. In a 96-well plate, 100 μL of diluted culture was added to each well. To column #1, an additional 100 μL of diluted culture and test compound was added (93.7 μL culture+6.35 μL 10 mg/mL novobiocin) or (94.2 μL culture+5.87 μL 10 mg/mL 1-adamantyl-novobiocin) such that the highest concentration tested was 500 μM. Transferred 100 μL from column #1 into column #2, etc, and mixed each time thoroughly. Repeated serial dilution until column #11. Incubated the plate at 37° C. overnight (˜16 h) and read the turbidity (OD600) using a Spectramax 384 plus plate reader (Molecular Devices).

wild type [3] = experiment: Minimum inhibitory concentration assay; assay type: cell-based, E. coli; conditions: Escherichia coli, 15 h, read-out: Minimum inhibitory concentration
Method: as §1, §2

lptB1 [4] = experiment: Minimum inhibitory concentration assay; assay type: cell-based, E. coli; conditions: Escherichia coli, 15 h, read-out: Minimum inhibitory concentration
Method: as §1, §2

Escherichia coli = experiment: Minimal inhibitory concentrations, checkerboard microdilution; assay type: cell-based; conditions: Escherichia coli; grown at 37° C. for 24 h; read-out: MIC
Method: (§3) Checkerboard microdilution assays between polymyxin B and novobiocin were performed in wild-type strains (unless otherwise noted) grown at 37° C. for 24 h. Checkerboard data (FIG. 1A-1F) are representative of at least three biological replicates. The following strains were tested: A) Wild-type Escherichia coli, ATCC 25922; B) Wild-type Enterobacter cloacae; ATCC 13047) Wild-type Klebsiella pneumoniae, ATCC 700721; D) Wild-type Pseudomonas aeruginosa, ATCC 15692 (PAO1); E) Wild-type Acinetobacter baumannii, ATCC 19606; F) novobiocin-resistant Acinetobacter baumannii, ATCC 19606 gyrB(R150C).

Pseudomonas aeruginosa = experiment: as above; assay type: cell-based; conditions: Pseudomonas aeruginosa; grown at 37° C. for 24 h; read-out: MIC
Method: as §3

Klebsiella pneumoniae = experiment: as above; assay type: cell-based; conditions: Klebsiella pneumoniae; grown at 37° C. for 24 h; read-out: MIC
Method: as §3

[5] = tested on: Acinetobacter baumannii Novo^R; experiment: as above; assay type: cell-based; conditions: Acinetobacter baumannii, 24 h
Method: as §3

lptB1(G33C) = experiment: Disk diffusion assay; assay type: cell-based, E. coli; conditions: Escherichia coli, read-out: Zone of inhibition, diameter of the zone of total growth inhibition
Method: (§4) Zones of inhibition were measured in disk diffusion assays of wild type, IptB1, and suppressors IptB1(R144H) and IptB1(G33C) pictured in FIG. 6B. Assays were conducted with 6-mm disks. Numbers outside of parentheses report the diameter of the zone of total growth inhibition (in mm), while numbers inside parenthesis report the diameter of the zone of partial growth inhibition.
(§5) Disk diffusion assays were performed as described in Sherman et al., Proc. Natl. Acad. Sci. USA 2014, 111, 4982-4987. Premade Sensi-Disc (BD-Beckton, Dickinson and Company) were used for bacitracin 10IU, erythromycin 15 μg, novobiocin 30 μg, and rifampin 5 μg.

wild type [6] = experiment: Disk diffusion assay; assay type: cell-based, E. coli; conditions: Escherichia coli; 6-mm disks; bacitracin 10IU, erythromycin 15 μg, novobiocin 30 μg, rifampin 5 μg, nalidixic acid 5 μg; read-out: Zone of inhibition, diameter of the zone of total growth inhibition
Method: as §4, §5

lptB1 [7] = experiment: Disk diffusion assay; assay type: cell-based, E. coli; conditions: Escherichia coli
Method: as §4, §5

lptB1(R144H) = experiment: Disk diffusion assay; assay type: cell-based, E. coli; conditions: Escherichia coli, read-out: Zone of inhibition, diameter of the zone of total growth inhibition
Method: as §4, §5

[8] = Novobiocin 200 mg/kg (total 400) BID/SC

SMILES: CO[C@@H]1[C@@H](OC(N)=O)[C@@H](O)[C@H](Oc2ccc3c(O)c(NC(=O)c4ccc(O)c(CC=C(C)C)c4)c(=O)oc3c2C)OC1(C)C [Novobiocin, novobiocin]
- synergy with polymyxin B [1]: synergizes with polymyxin B
- change in log10 CFU/g of thigh from 2 hour control [2, 8]: 3.58 log10 CFU/g of thigh
- change in log10 CFU/g of thigh from 26 hour controls [2, 8]: −0.51 log10 CFU/g of thigh
- activity against this isolate ([2]; Novobiocin delivered at 200 mg/kg): did not demonstrate significant activity
- Average log10 CFU/g of thigh ([2]; neutropenic CD-1 mice, Novobiocin 200 mg/kg (total 400) BID/SC, 26 hours post infection): 9.12 log10 CFU/g of thigh
- MIC (ΔtolC): 2 µM (≈ 1.23 µg/mL)
- MIC (wild type [3]): 62.5 to 125 µM (≈ 38.3 to 76.6 µg/mL)
- MIC (lptB1 [4]): < 0.5 µM
- MIC (Escherichia coli): 20 µg/mL
- MIC (Pseudomonas aeruginosa): > 450 µg/mL
- MIC (Klebsiella pneumoniae): 270 µg/mL
- MIC [5]: 190 µg/mL
- zone of inhibition at 30 µg/disc (lptB1(G33C)): < 6 mm
- zone of inhibition at 30 µg/disc (wild type [6]): < 6 mm
- zone of inhibition at 30 µg/disc (lptB1 [7]; read-out: Zone of inhibition, diameter of the zone of partial growth inhibition (in parentheses)): 24 mm
- zone of inhibition at 30 µg/disc (lptB1 [7]; read-out: Zone of inhibition, diameter of the zone of total growth inhibition): 14 mm
- zone of inhibition at 30 µg/disc (lptB1(R144H)): < 6 mm
